Results on 23 compounds are retold here after US11638713B2, “Patentiflorin A analogs as antiviral agents” (priority 2019, dated 2023).

Data set [1] in a line: in vitro. To be noted: human.
Data set [2] has as its system VSV (vesicular stomatitis virus). The experiment in a line: microbe, parasite or virus in culture. Type of data set: cell-based. To be noted: for EC50: A549, read-out: EC50 against VSV.
In data set [3] the test system is EBOV (Ebola virus). Put plainly: microbe, parasite or virus in culture. It is filed as cell-based. The note with it: Zaire ebolavirus; for EC50: A549, read-out: EC50 against EBOV; for inhibition at 0.5 µg/mL: 500 ng/mL.
Data set [4] has as its system H5N1 virus. The experiment in a line: microbe, parasite or virus in culture. It is filed as cell-based, H5N1 influenza virus. To be noted: for inhibition at 0.05 µg/mL: H5N1, A549, 50 ng/mL; for inhibition at 0.25 µg/mL: H5N1, A549, 250 ng/mL; for EC50: H5N1, A549, read-out: EC50 against H5N1 virus; for inhibition at 0.0125 µg/mL: H5N1, A549, 12.5 ng/mL; for inhibition at 0.5 µg/mL: H5N1, A549, 500 ng/mL.

Data set [5] relates to HIV. The experiment in a line: microbe, parasite or virus in culture. Type of data set: cell-based. To be noted: for EC50: Human immunodeficiency virus 1, A549.
Data set [6] has as its system A549 cells. Put plainly: cells. To be noted: Homo sapiens, A549, read-out: % Inhibition against A549 cells.
Setting [7] is: CC50 against the host cell line A549.
[8] abbreviates: Influenza A virus, read-out: % Inhibition against H5N1 virus.
Setting [9] is: A549, read-out: % Inhibition against EBOV.

Read-outs that look alike come from different tables or passages of the source. A value given as a limit tells only on which side of the number the result lay.

For `C=CCOC(=O)O[C@@H]1COC(Oc2c3c(c(-c4ccc5c(c4)OCO5)c4cc(OC)c(OC)cc24)C(=O)OC3)[C@H](OC(=O)OCC=C)[C@H]1O` (stereo partly drawn) [Compound 29a, 2″,4″-O-diallyl oxycarbonyl-7-O-β-D-xylosyldiphyllin], the CC50 in data set [1] (CC50 (nM)) came to 438 nM; in data set [1] (setting [7]), 122 nM. For the same compound, the EC50 in data set [2] was found to be 10.6 nM; in data set [3], 10.6 nM; in data set [4] (Influenza A virus), 5.57 nM. In data set [4] (setting [8]), the inhibition at 0.05 µg/mL was found to be 59.4%. Moreover, the inhibition at 0.25 µg/mL in data set [4] (setting [8]) was 97.3%.

Turning to `C=CCOC(=O)O[C@@H]1COC(Oc2c3c(c(-c4ccc5c(c4)OCO5)c4cc(OC)c(OC)cc24)C(=O)OC3)[C@H](OC(=O)OCC=C)[C@H]1OC(=O)N(C)C` (stereo partly drawn) [Compound 30a, 2″,4″-O-diallyl oxycarbonyl-3″-O-dimethylcarbamyl-7-O-β-D-xylosyldiphyllin], the CC50 in data set [1] (CC50 (nM)) was 145 nM; in data set [1] (setting [7]), 35.2 nM. Besides, the EC50 came to 8.6 nM in data set [2], 1.84 nM in data set [3] and 3.88 nM in data set [4] (Influenza A virus). In addition, the inhibition at 0.0125 µg/mL in data set [4] (setting [8]) is 44.1%. For the same compound, in data set [4] (setting [8]), the inhibition at 0.05 µg/mL stood at 95.7%. Besides, in data set [4] (setting [8]), the inhibition at 0.25 µg/mL came out at 97.6%.

Regarding `C=CCOC(=O)O[C@H]1C(Oc2c3c(c(-c4ccc5c(c4)OCO5)c4cc(OC)c(OC)cc24)C(=O)OC3)OC[C@@H](O)[C@@H]1OC(C)=O` (stereo partly drawn) [Compound 28ab2, 2″-O-allyl oxycarbonyl-3″-acetyl-7-O-β-D-xylosyldiphyllin], the CC50 in data set [1] (CC50 (nM)) turned out to be 386 nM; in data set [1] (setting [7]) it was 108 nM. For the same compound, the EC50 came out at 2.3 nM in data set [5], 4.98 nM in data set [2], 16.3 nM in data set [3] and 0.23 nM in data set [4] (Influenza A virus).

In turn, `COc1cc2c(OC3OC[C@@H](O)[C@H](OCc4ccccc4)[C@H]3O)c3c(c(-c4ccc5c(c4)OCO5)c2cc1OC)C(=O)OC3` (stereo partly drawn) [Compound 31l, 3″-O-benzyl-7-O-β-D-xylosyldiphyllin] gave a CC50 in data set [1] (setting [7]) of 4.85 nM. Also, the inhibition at 0.0125 µg/mL in data set [6] was found to be 52%; in data set [2] (A549, 12.5 ng/mL, read-out: % Inhibition against VSV) it was 88.7%; in data set [3] (A549, 12.5 ng/mL, read-out: % Inhibition against EBOV), 86.4%; in data set [4] (setting [8]) it was 82.8%. The inhibition at 0.05 µg/mL is 82.1% in data set [6]; 98.4% in data set [2] (A549, 50 ng/mL, read-out: % Inhibition against VSV); 94.2% in data set [3] (A549, 50 ng/mL, read-out: % Inhibition against EBOV); 96% in data set [4] (setting [8]). Moreover, the EC50 in data set [2] came to 0.37 nM; in data set [3], 0.19 nM; in data set [4] (Influenza A virus) it was 0.013 nM. Besides, the “% Inhibition against H5N1 virus” value in data set [4] (12.5 ng/mL) is on record as 95.1%; in data set [4] (50 ng/mL), 95.6%. Besides, the inhibition at 0.25 µg/mL in data set [4] (setting [8]) came out at 96.8%.

As for `CN(C)CCOc1ccc(/C(=C(/CCCl)c2ccccc2)c2ccccc2)cc1` [Toremifene, toremifene, reference compound], the inhibition at 0.5 µg/mL in data set [6] was -15.1%; in data set [2] (A549, read-out: % Inhibition against VSV) it was 6.58%; in data set [3] (setting [9]), 93.6%; in data set [4] (setting [8]), 28.4%. In data set [3], the EC50 was 212 nM.

Turning to `COc1cc2c(OC3O[C@H](CO)[C@@H](O)[C@H](O)[C@H]3O)c3c(c(-c4ccc5c(c4)OCO5)c2cc1OC)C(=O)OC3` (stereo partly drawn) [Compound 26f, 7-O-β-D-glucopyranosyldiphyllin], the CC50 in data set [1] (CC50 (nM)) is more than 9220 nM; in data set [1] (setting [7]), 8650 nM. The inhibition at 0.1 µg/mL in data set [6] is -3.84%; in data set [2] (A549, 100 ng/mL, read-out: % Inhibition against VSV), 47.2%; in data set [3] (A549, 100 ng/mL, read-out: % Inhibition against EBOV) it was 82.7%; in data set [4] (Influenza A virus, H5N1, A549, 100 ng/mL, read-out: % Inhibition against H5N1 virus), 62.4%. Also, the inhibition at 0.5 µg/mL in data set [6] is 18.2%; in data set [2] (A549, 500 ng/mL, read-out: % Inhibition against VSV) it was 70.8%; in data set [3] (setting [9]) it was 89.1%; in data set [4] (setting [8]) it was 87.2%. The EC50 in data set [2] was 1040 nM; in data set [3] it was 516 nM; in data set [4] (Influenza A virus), 371 nM.

For `COc1cc2c(OC3O[C@H](CO)[C@H](O)[C@H](O)[C@H]3O)c3c(c(-c4ccc5c(c4)OCO5)c2cc1OC)C(=O)OC3` (stereo partly drawn) [Compound 26g, 7-O-β-D-galactopyranosyldiphyllin], the CC50 stood at 7770 nM in data set [1] (CC50 (nM)) and 4130 nM in data set [1] (setting [7]). The EC50 in data set [5] worked out at 1400 nM; in data set [2], 210 nM; in data set [3], 123 nM; in data set [4] (Influenza A virus), 63.6 nM.

For the compound `COc1cc2c(OC)c3c(c(-c4ccc5c(c4)OCO5)c2cc1OC)C(=O)OC3` [Compound 17b], the CC50 in data set [1] (CC50 (nM)) is 2140 nM. Further, in data set [5], the “anti-HIV activity in terms of SI values” is reported as “much more improved anti-HIV activity” and the EC50 worked out at 2.6 nM.

On to `COc1cc2c(C(C)=O)c3c(c(-c4ccc5c(c4)OCO5)c2cc1OC)C(=O)OC3` [Compound 19n], for which the CC50 in data set [1] (CC50 (nM)) was 1060 nM. Further, a half-maximal response in data set [5] (EC50) required 39.5 nM.

`COc1cc2c(C#C[Si](C)(C)C)c3c(c(-c4ccc5c(c4)OCO5)c2cc1OC)C(=O)OC3` [Compound 19o] yielded a CC50 in data set [1] (CC50 (nM)) of 1220 nM. Further, the response in data set [5] was half-maximal at 35.7 nM (EC50).

In turn, `COc1cc2c(OC(=O)C3CCCC3)c3c(c(-c4ccc5c(c4)OCO5)c2cc1OC)C(=O)OC3` [Compound 17f] showed a CC50 in data set [1] (CC50 (nM)) of 7070 nM. The EC50 in data set [5] is 772 nM.

The compound `COc1cc2c(N=C(c3ccccc3)c3ccccc3)c3c(c(-c4ccc5c(c4)OCO5)c2cc1OC)C(=O)OC3` [Compound 19p] had a CC50 in data set [1] (CC50 (nM)) of more than 9200 nM. Moreover, in data set [5], the EC50 was 249 nM. The inhibition at 1 µg/mL in data set [6] is -13%; in data set [3] (A549, 1000 ng/mL, read-out: % Inhibition against EBOV) it was 58.1%; in data set [4] (Influenza A virus, H5N1, A549, 1000 ng/mL, read-out: % Inhibition against H5N1 virus), 82.1%. In addition, the inhibition at 5 µg/mL turned out to be 17.2% in data set [6]; 89.4% in data set [3] (A549, 5000 ng/mL, read-out: % Inhibition against EBOV); 96.5% in data set [4] (Influenza A virus, H5N1, A549, 5000 ng/mL, read-out: % Inhibition against H5N1 virus).

In data set [1] (CC50 (nM)), `COc1cc2c(Oc3ncccn3)c3c(c(-c4ccc5c(c4)OCO5)c2cc1OC)C(=O)OC3` [Compound 17d] registered a CC50 of 61100 nM. This compound also gave an EC50 in data set [5] of 1590 nM.

In data set [1] (CC50 (nM)), `COc1cc2c(OC3O[C@H](C)[C@@H](OC(C)=O)[C@H](OC(C)=O)[C@H]3O)c3c(c(-c4ccc5c(c4)OCO5)c2cc1OC)C(=O)OC3` (stereo partly drawn) [Compound 27bd, 3″, 4″-Diacetyl-7-O-β-D-patentiflorin A] gave a CC50 of 421 nM. The compound also returned an EC50 in data set [5] of 6.39 nM.

`COc1cc2cc3c(c(-c4ccc5c(c4)OCO5)c2cc1OC)C(=O)OC3` [Compound 19d] came in with a CC50 in data set [1] (CC50 (nM)) of 5430 nM. Further, in data set [5], the “anti-HIV activity in terms of SI values” is on record as “much more improved anti-HIV activity” and it took 22.9 nM to reach a half-maximal effect (EC50).

As to `COc1cc2c(OC3O[C@H](C)[C@@H](O)[C@H](OC(C)=O)[C@H]3O)c3c(c(-c4ccc5c(c4)OCO5)c2cc1OC)C(=O)OC3` (stereo partly drawn) [Compound 27bb, 3″-Acetyl-7-O-β-D-patentiflorin A], the CC50 in data set [1] (CC50 (nM)) was determined as 589 nM. Moreover, in data set [5], the “anti-HIV activity in terms of SI values” was “much more improved anti-HIV activity” and the midpoint of the response, the EC50, lay at 1.01 nM.

In turn, `COc1cc2c(OCC(N)=O)c3c(c(-c4ccc5c(c4)OCO5)c2cc1OC)C(=O)OC3` [Compound 14a] gave a CC50 in data set [1] (CC50 (nM)) of 548 nM. Further, it took 103 nM to reach a half-maximal effect in data set [5] (EC50).

In turn, `COc1cc2c(N)c3c(c(-c4ccc5c(c4)OCO5)c2cc1OC)C(=O)OC3` [Compound 22] returned a CC50 in data set [1] (CC50 (nM)) of 358 nM. Moreover, in data set [5], the “anti-HIV activity in terms of SI values” is reported as “much more improved anti-HIV activity” and the midpoint of the response, the EC50, lay at 1.61 nM.

On to `COc1cc2c(OCC(=O)OC(C)(C)C)c3c(c(-c4ccc5c(c4)OCO5)c2cc1OC)C(=O)OC3` [Compound 12a], for which, in data set [1] (CC50 (nM)), the CC50 was more than 10100 nM. Further, in data set [5], the EC50 was determined as 518 nM.

In turn, `COc1ccc(C(=O)Oc2c3c(c(-c4ccc5c(c4)OCO5)c4cc(OC)c(OC)cc24)C(=O)OC3)cc1` [Compound 17h] gave a CC50 in data set [1] (CC50 (nM)) of 1460 nM. In data set [5], this compound yielded an EC50 of 96.5 nM.

In data set [1] (CC50 (nM)), `CNC(=O)COc1c2c(c(-c3ccc4c(c3)OCO4)c3cc(OC)c(OC)cc13)C(=O)OC2` [Compound 14b] came in with a CC50 of 2120 nM. For the same compound, the EC50 in data set [5] was 278 nM.

In the case of `C=CCOC(=O)O[C@@H]1COC(Oc2c3c(c(-c4ccc5c(c4)OCO5)c4cc(OC)c(OC)cc24)C(=O)OC3)[C@H](OC(=O)OCC=C)[C@H]1OC(C)=O` (stereo partly drawn) [Compound 28ab3, 2″,4″-O-diallyl oxycarbonyl-3″-acetyl-7-O-β-D-xylosyldiphyllin], the CC50 stood at 386 nM in data set [1] (CC50 (nM)) and 6.14 nM in data set [1] (setting [7]). Also, the EC50 in data set [5] is 22.9 nM; in data set [2], 0.85 nM; in data set [3] it was 0.98 nM; in data set [4] (Influenza A virus) it was 1.16 nM.

For the compound `COc1cc2c(OCCO)c3c(c(-c4ccc5c(c4)OCO5)c2cc1OC)C(=O)OC3` [Compound 15a], the CC50 in data set [1] (CC50 (nM)) turned out to be 918 nM. For the same compound, the EC50 in data set [5] is 33.6 nM.

A word on the EC50: it is the midpoint of the concentration-response curve. Broadly, the inhibition is the relative decrease from the control value, in per cent.
